Among the data in US11591336B2 (Relay Therapeutics, Inc., priority 2017, dated 2023) are IC50 values, retold here.

Bounds are passed on as bounds.

Chain of SHP2 (Q06124 whole entry): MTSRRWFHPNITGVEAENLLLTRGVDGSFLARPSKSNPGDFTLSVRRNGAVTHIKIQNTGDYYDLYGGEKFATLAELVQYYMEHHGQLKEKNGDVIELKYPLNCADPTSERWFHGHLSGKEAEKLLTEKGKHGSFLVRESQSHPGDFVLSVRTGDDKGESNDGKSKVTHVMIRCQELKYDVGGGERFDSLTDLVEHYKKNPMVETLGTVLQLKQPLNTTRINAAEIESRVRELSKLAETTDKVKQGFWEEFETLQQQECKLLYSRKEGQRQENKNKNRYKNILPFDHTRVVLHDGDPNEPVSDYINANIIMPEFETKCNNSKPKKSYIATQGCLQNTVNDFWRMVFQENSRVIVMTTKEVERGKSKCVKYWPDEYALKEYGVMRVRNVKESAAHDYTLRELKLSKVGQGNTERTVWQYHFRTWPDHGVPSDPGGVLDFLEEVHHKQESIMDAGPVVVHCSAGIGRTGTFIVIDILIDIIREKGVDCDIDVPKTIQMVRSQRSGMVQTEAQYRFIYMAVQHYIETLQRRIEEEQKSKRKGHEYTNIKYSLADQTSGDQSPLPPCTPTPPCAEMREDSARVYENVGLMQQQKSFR

This assay concerns the target SHP2 (Homo sapiens (Human), UniProt Q06124). As to the kind of experiment: SHP2 Allosteric Inhibition Assay (DiFMUP prompt fluorescence). The format is biochemical. As to conditions: 0.25 nM SHP2 activated with 0.5 μM peptide IRS1_pY1172(dPEG8)pY1222; substrate DiFMUP 100 μM; 25° C.
Consider `C[C@@H]1CCN(c2n[nH]c3nc(N4CCC5(CC4)CO[C@@H](C)[C@H]5N)cnc23)c2ccc(-c3cnn(C)c3)nc21` [Compound 266, (3S,4S)-3-methyl-8-{3-[(4R)-4-methyl-6-(1-methyl-1H-pyrazol-4-yl)-1,2,3,4-tetrahydro-1,5-naphthyridin-1-yl]-1H-pyrazolo[3,4-b]pyrazin-6-yl}-2-oxa-8-azaspiro[4.5]decan-4-amine], for which the IC50 (as a rule, the concentration at which inhibition is half-maximal) is < 1 µM.
As for `C[C@@H]1OCC2(CCN(c3cnc4c(N5CCc6ncccc6C5)n[nH]c4n3)CC2)[C@@H]1N` [Compound 267], the IC50 was < 1 µM.
To `C[C@@H]1OCC2(CCN(c3cnc4c(N5CCc6ccccc6C5)n[nH]c4n3)CC2)[C@@H]1N` [Compound 268] belongs < 1 µM; to `C[C@@H]1OCC2(CCN(c3cnc4c(N5CCOc6ccccc6C5)n[nH]c4n3)CC2)[C@@H]1N` [Compound 269], < 1 µM; to `C[C@@H]1OCC2(CCN(c3cnc4c(N5CCc6ccccc6C5=O)n[nH]c4n3)CC2)[C@@H]1N` [Compound 270], < 1 µM.
Turning to `C[C@@H]1OCC2(CCN(c3cnc4c(N5CCc6cccnc6C5)n[nH]c4n3)CC2)[C@@H]1N` [Compound 271], the IC50 is < 1 µM.
As to `C[C@@H]1OCC2(CCN(c3cnc4c(N5CCc6ccncc6C5)n[nH]c4n3)CC2)[C@@H]1N` [Compound 272], the IC50 is < 1 µM.
For `C[C@@H]1OCC2(CCN(c3cnc4c(N5CCc6cc(C#N)ccc6C5)n[nH]c4n3)CC2)[C@@H]1N` [Compound 273] the value was < 1 µM.
In the case of `C[C@@H]1OCC2(CCN(c3cnc4c(N5CCc6c(C#N)cccc6C5)n[nH]c4n3)CC2)[C@@H]1N` [Compound 274], the IC50 was < 1 µM.
`C[C@@H]1OCC2(CCN(c3cnc4c(N5CC(=O)N(C)c6cc(C#N)ccc65)n[nH]c4n3)CC2)[C@@H]1N` [Compound 275, 1-{6-[(3S,4S)-4-amino-3-methyl-2-oxa-8-azaspiro[4.5]decan-8-yl]-1H-pyrazolo[3,4-b]pyrazin-3-yl}-4-methyl-3-oxo-1,2,3,4-tetrahydroquinoxaline-6-carbonitrile]: the IC50 is < 1 µM.
As to `C[C@@H]1OCC2(CCN(c3cnc4c(N5CCN(C)c6cnccc65)n[nH]c4n3)CC2)[C@@H]1N` [Compound 276], the IC50 is < 1 µM.
To `C[C@@H]1CCN(c2n[nH]c3nc(N4CCC5(CC4)CO[C@@H](C)[C@H]5N)cnc23)c2cccc(-c3cnn(C)c3)c21` [Compound 277] belongs < 1 µM.
For the molecule `C[C@@H]1OCC2(CCN(c3cnc4c(N5CC[C@H](C)c6c(-c7cnn(C)c7)cccc65)n[nH]c4n3)CC2)[C@@H]1N` [Compound 278], the IC50 is < 1 µM.
As to `C[C@@H]1OCC2(CCN(c3cnc4c(N5CCCc6nc(-n7cncn7)ccc65)n[nH]c4n3)CC2)[C@@H]1N` [Compound 279], the IC50 was < 1 µM.
To `C[C@@H]1OCC2(CCN(c3cnc4c(N5CCCc6nc(-c7ccn(C)n7)ccc65)n[nH]c4n3)CC2)[C@@H]1N` [Compound 280, (3S,4S)-3-methyl-8-{3-[6-(1-methyl-1H-pyrazol-3-yl)-1,2,3,4-tetrahydro-1,5-naphthyridin-1-yl]-1H-pyrazolo[3,4-b]pyrazin-6-yl}-2-oxa-8-azaspiro[4.5]decan-4-amine] belongs < 1 µM.
For `C[C@@H]1OCC2(CCN(c3cnc4c(N5CCCc6c5cccc6S(C)(=O)=O)n[nH]c4n3)CC2)[C@@H]1N` [Compound 281, (3S,4S)-8-[3-(5-methanesulfonyl-1,2,3,4-tetrahydroquinolin-1-yl)-1H-pyrazolo[3,4-b]pyrazin-6-yl]-3-methyl-2-oxa-8-azaspiro[4.5]decan-4-amine] the value was < 1 µM.
In the case of `CNC(=O)c1ccc2c(n1)CCCN2c1n[nH]c2nc(N3CCC4(CC3)CO[C@@H](C)[C@H]4N)cnc12` [Compound 282, 5-(6-((3S,4S)-4-amino-3-methyl-2-oxa-8-azaspiro[4.5]decan-8-yl)-1H-pyrazolo[3,4-b]pyrazin-3-yl)-N-methyl-5,6,7,8-tetrahydro-1,5-naphthyridine-2-carboxamide], the IC50 is < 1 µM.
